In patent US10253002B2, “Compounds and methods of treating infections” (Neoculi Pty Ltd., priority 2013, dated 2019):
Values joined by “and” are separate entries in the source; they are usually repeats but may differ in a detail not shown here. Identical values can stand only once.

Tests used:
Experiment in all cases: Broth microdilution MIC, Example 7 (NCL812 and analogues)
MRSA = type: cell-based, Staphylococcus aureus; conditions: for MIC (μg/ml) at 24 hours, MRSA 1: isolate MRSA 1; for MIC (μg/ml) at 24 hours, MRSA 1 / MIC (μg/ml) at 24 hours, MRSA 2: 1st and 2nd replicate rows; for MIC (μg/ml) at 24 hours, MRSA 2: isolate MRSA 2; for activity against MRSA among analogues: MIC testing, two MRSA strains
Protocol: (§1) Minimum inhibitory concentrations (μg/ml) were determined using the broth microdilution method recommended by the Clinical and Laboratory Standards Institute (CLSI). MIC breakpoints were determined by visual assessment and then confirmed using an ELISA plate reader, measuring absorbance levels at 600 nm. Bacterial growth (turbidity) in the wells with antimicrobial was compared with the amount of growth (turbidity) in the growth-control well (containing no antimicrobial). All isolates were tested in duplicate, if there was a difference of greater than one two-fold dilution in the results, the test was repeated a third time. The purity of the isolates was closely monitored during testing by subculturing the prepared bacterial inoculum onto SBA (sheep blood agar). […] The MIC50, MIC20 and MIC range (minimum and maximum) were calculated for each of the bacterial groups.
(§2) MICs were determined against two MRSA strains, two VRE strains and one strain each of E. coli and Pseudomonas aeruginosa.

Pseudomonas aeruginosa = type: cell-based; conditions: 24 hours; 1st and 2nd replicate rows
VRE = type: cell-based, Enterococcus spp.; conditions: for MIC (μg/ml) at 24 hours, VRE 1: isolate VRE 1; for MIC (μg/ml) at 24 hours, VRE 1 / MIC (μg/ml) at 24 hours, VRE 2: 1st and 2nd replicate rows; for MIC (μg/ml) at 24 hours, VRE 2: isolate VRE 2; for activity against VRE among analogues: MIC testing, two VRE strains; for VRE: bioassay ranking
Protocol: as §1, §2

Escherichia coli = type: cell-based; conditions: 24 hours; 1st and 2nd replicate rows

## O=C(N/N=C/c1ccc(Cl)cc1)N/N=C/c1ccc(Cl)cc1 [NCL001]
MRSA
  MIC (μg/ml) at 24 hours, MRSA 1: >128 µg/mL
  MIC (μg/ml) at 24 hours, MRSA 2: >128 µg/mL
Pseudomonas aeruginosa
  MIC (μg/ml) at 24 hours, P. aeruginosa: >128 µg/mL
VRE
  MIC (μg/ml) at 24 hours, VRE 1: >128 µg/mL
  MIC (μg/ml) at 24 hours, VRE 2: >128 µg/mL
Escherichia coli
  MIC (μg/ml) at 24 hours, E. coli: >128 µg/mL and >126 µg/mL

## O=C(N/N=C/c1ccccc1Cl)N/N=C/c1ccccc1Cl [NCL002]
MRSA
  MIC (μg/ml) at 24 hours, MRSA 1: >128 µg/mL
  MIC (μg/ml) at 24 hours, MRSA 2: >128 µg/mL
Pseudomonas aeruginosa
  MIC (μg/ml) at 24 hours, P. aeruginosa: >128 µg/mL
VRE
  MIC (μg/ml) at 24 hours, VRE 1: >128 µg/mL
  MIC (μg/ml) at 24 hours, VRE 2: >128 µg/mL
Escherichia coli
  MIC (μg/ml) at 24 hours, E. coli: >128 µg/mL

## O=C(N/N=C/c1ccc(F)cc1)N/N=C/c1ccc(F)cc1 [NCL003]
MRSA
  MIC (μg/ml) at 24 hours, MRSA 1: >128 µg/mL
  MIC (μg/ml) at 24 hours, MRSA 2: >128 µg/mL
Pseudomonas aeruginosa
  MIC (μg/ml) at 24 hours, P. aeruginosa: >128 µg/mL
VRE
  MIC (μg/ml) at 24 hours, VRE 1: >128 µg/mL
  MIC (μg/ml) at 24 hours, VRE 2: >128 µg/mL
Escherichia coli
  MIC (μg/ml) at 24 hours, E. coli: >128 µg/mL

## O=C(N/N=C/c1cccc(F)c1)N/N=C/c1cccc(F)c1 [NCL004]
MRSA
  MIC (μg/ml) at 24 hours, MRSA 1: >128 µg/mL
  MIC (μg/ml) at 24 hours, MRSA 2: >128 µg/mL
Pseudomonas aeruginosa
  MIC (μg/ml) at 24 hours, P. aeruginosa: >128 µg/mL
VRE
  MIC (μg/ml) at 24 hours, VRE 1: >128 µg/mL
  MIC (μg/ml) at 24 hours, VRE 2: >128 µg/mL
Escherichia coli
  MIC (μg/ml) at 24 hours, E. coli: >128 µg/mL

## O=C(N/N=C/c1ccccc1F)N/N=C/c1ccccc1F [NCL005]
MRSA
  MIC (μg/ml) at 24 hours, MRSA 1: >128 µg/mL
  MIC (μg/ml) at 24 hours, MRSA 2: >128 µg/mL
Pseudomonas aeruginosa
  MIC (μg/ml) at 24 hours, P. aeruginosa: >128 µg/mL
VRE
  MIC (μg/ml) at 24 hours, VRE 1: >128 µg/mL
  MIC (μg/ml) at 24 hours, VRE 2: >128 µg/mL
Escherichia coli
  MIC (μg/ml) at 24 hours, E. coli: >128 µg/mL

## COc1ccc(/C=N/NC(=O)N/N=C/c2ccc(OC)cc2)cc1 [NCL006]
MRSA
  MIC (μg/ml) at 24 hours, MRSA 1: >128 µg/mL
  MIC (μg/ml) at 24 hours, MRSA 2: >128 µg/mL
Pseudomonas aeruginosa
  MIC (μg/ml) at 24 hours, P. aeruginosa: >128 µg/mL
VRE
  MIC (μg/ml) at 24 hours, VRE 1: >128 µg/mL
  MIC (μg/ml) at 24 hours, VRE 2: >128 µg/mL
Escherichia coli
  MIC (μg/ml) at 24 hours, E. coli: >128 µg/mL

## N#Cc1ccc(/C=N/NC(=O)N/N=C/c2ccc(C#N)cc2)cc1 [NCL007]
MRSA
  MIC (μg/ml) at 24 hours, MRSA 1: >128 µg/mL
  MIC (μg/ml) at 24 hours, MRSA 2: >128 µg/mL
Pseudomonas aeruginosa
  MIC (μg/ml) at 24 hours, P. aeruginosa: >128 µg/mL
VRE
  MIC (μg/ml) at 24 hours, VRE 1: >128 µg/mL
  MIC (μg/ml) at 24 hours, VRE 2: >128 µg/mL
Escherichia coli
  MIC (μg/ml) at 24 hours, E. coli: >128 µg/mL

## N#Cc1ccccc1/C=N/NC(=O)N/N=C/c1ccccc1C#N [NCL008]
MRSA
  MIC (μg/ml) at 24 hours, MRSA 1: >128 µg/mL
  MIC (μg/ml) at 24 hours, MRSA 2: >128 µg/mL
Pseudomonas aeruginosa
  MIC (μg/ml) at 24 hours, P. aeruginosa: >128 µg/mL
VRE
  MIC (μg/ml) at 24 hours, VRE 1: >128 µg/mL
  MIC (μg/ml) at 24 hours, VRE 2: >128 µg/mL
Escherichia coli
  MIC (μg/ml) at 24 hours, E. coli: >128 µg/mL

## N#Cc1cccc(/C=N/NC(=O)N/N=C/c2cccc(C#N)c2)c1 [NCL009]
MRSA
  MIC (μg/ml) at 24 hours, MRSA 1: >128 µg/mL
  MIC (μg/ml) at 24 hours, MRSA 2: >128 µg/mL
Pseudomonas aeruginosa
  MIC (μg/ml) at 24 hours, P. aeruginosa: >128 µg/mL
VRE
  MIC (μg/ml) at 24 hours, VRE 1: >128 µg/mL
  MIC (μg/ml) at 24 hours, VRE 2: >128 µg/mL
Escherichia coli
  MIC (μg/ml) at 24 hours, E. coli: >128 µg/mL

## COc1cc(/C=N/NC(=N)N/N=C/c2ccc(O)c(OC)c2)ccc1O.Cl [NCL117]
MRSA
  activity against MRSA among analogues: greatest activity
VRE
  activity against VRE among analogues: greatest activity

## C#Cc1cccc(C=NNC(=N)NN=Cc2cccc(C#C)c2)c1.Cl [NCL126]
VRE
  activity against VRE among analogues: greatest activity

## Cl.N=C(NN=Cc1cccc(Br)c1)NN=Cc1cccc(Br)c1 [NCL131]
VRE
  activity against VRE among analogues: greatest activity

## CCCCc1ccc(C=NNC(=N)NN=Cc2ccc(CCCC)cc2)cc1.Cl [NCL136]
MRSA
  activity against MRSA among analogues: greatest activity
VRE
  activity against VRE among analogues: greatest activity

## Cl.N=C(NN=CC(=Cc1ccccc1)c1ccccc1)NN=CC(=Cc1ccccc1)c1ccccc1 [NCL138]
MRSA
  activity against MRSA among analogues: greatest activity

## CSc1ccc(C=NNC(=N)NN=Cc2ccc(SC)cc2)cc1.Cl [NCL140]
MRSA
  activity against MRSA among analogues: greatest activity
VRE
  activity against VRE among analogues: greatest activity
  VRE: 5 µg/mL

## Cl.N=C(NN=Cc1csc2ccc(Cl)cc12)NN=Cc1csc2ccc(Cl)cc12 [NCL141]
VRE
  activity against VRE among analogues: greatest activity

## COc1ccc(C=CC=NNC(=N)NN=CC=Cc2ccc(OC)cc2)cc1.Cl [NCL150]
MRSA
  activity against MRSA among analogues: greatest activity

## Cl.N=C(NN=Cc1ccc(O)cc1)NN=Cc1ccc(O)cc1 [NCL151]
MRSA
  activity against MRSA among analogues: greatest activity
VRE
  activity against VRE among analogues: greatest activity

## Cl.N=C(NN=C(c1ccc(Cl)cc1O)C1CCCC1)NN=C(c1ccc(Cl)cc1O)C1CCCC1 [NCL159]
MRSA
  activity against MRSA among analogues: greatest activity
VRE
  activity against VRE among analogues: greatest activity

## Cl.N=C(NN=Cc1ccc(OC(F)(F)F)cc1)NN=Cc1ccc(OC(F)(F)F)cc1 [NCL160]
MRSA
  activity against MRSA among analogues: greatest activity
VRE
  activity against VRE among analogues: greatest activity

## CC(=NNC(=N)NN=C(C)c1ccc(N2CCNCC2)cc1)c1ccc(N2CCNCC2)cc1.Cl [NCL161]
MRSA
  activity against MRSA among analogues: greatest activity
VRE
  activity against VRE among analogues: greatest activity

## Cl.N=C(NN=Cc1ccc(SC(F)(F)F)cc1)NN=Cc1ccc(SC(F)(F)F)cc1 [NCL166]
MRSA
  activity against MRSA among analogues: greatest activity
VRE
  activity against VRE among analogues: greatest activity

## CC(=NNC(=N)NN=C(C)c1ccccn1)c1ccccn1.Cl [NCL172]
MRSA
  activity against MRSA among analogues: greatest activity

## Cl.N=C(N/N=C/c1ccc(Cl)nc1)N/N=C/c1ccc(Cl)nc1 [NCL175]
VRE
  activity against VRE among analogues: greatest activity

## C/C(=N\Nc1cc(N/N=C(\C)c2ccc(Cl)cc2)ncn1)c1ccc(Cl)cc1 [NCL178]
MRSA
  activity against MRSA among analogues: greatest activity
VRE
  activity against VRE among analogues: greatest activity

## OC/C(=N\Nc1cc(N/N=C(\CO)c2ccc(Cl)cc2)ncn1)c1ccc(Cl)cc1 [NCL180]
MRSA
  activity against MRSA among analogues: greatest activity
VRE
  activity against VRE among analogues: greatest activity
  VRE: 32 µg/mL

## Clc1ccc(/C=N/Nc2cc(N/N=C/c3ccc(Cl)cc3)ncn2)cc1 [NCL181]
MRSA
  activity against MRSA among analogues: greatest activity
VRE
  activity against VRE among analogues: greatest activity

## CC(Nc1cc(Cl)nc(N)n1)c1ccccc1 (centres unmarked) [NCL182]
MRSA
  activity against MRSA among analogues: greatest activity
VRE
  activity against VRE among analogues: greatest activity

## CC(Nc1cc(NC(C)c2ccccc2)ncn1)c1ccccc1 (centres unmarked) [NCL183]
MRSA
  activity against MRSA among analogues: greatest activity
VRE
  activity against VRE among analogues: greatest activity

## CC(Nc1cc(NC(C)c2ccccc2)nc(N)n1)c1ccccc1 (centres unmarked) [NCL184]
MRSA
  activity against MRSA among analogues: greatest activity
VRE
  activity against VRE among analogues: greatest activity
  VRE: 32 µg/mL

## C/C(=N\Nc1cc(N/N=C(\C)c2ccc(Cl)cc2)ncn1)c1ccc(Cl)cc1.Cl [NCL185]
MRSA
  activity against MRSA among analogues: greatest activity
VRE
  activity against VRE among analogues: greatest activity

## CC(Nc1cnc(NC(C)c2ccc(Cl)cc2)cn1)c1ccc(Cl)cc1 (centres unmarked) [NCL186]
MRSA
  activity against MRSA among analogues: greatest activity
VRE
  activity against VRE among analogues: greatest activity

## Cl.Clc1ccc(/C=N/Nc2cc(N/N=C/c3ccc(Cl)cc3)ncn2)cc1 [NCL187]
MRSA
  activity against MRSA among analogues: greatest activity
VRE
  activity against VRE among analogues: greatest activity

## Cl.OC/C(=N\Nc1cc(N/N=C(\CO)c2ccc(Cl)cc2)ncn1)c1ccc(Cl)cc1 [NCL189]
MRSA
  activity against MRSA among analogues: greatest activity
VRE
  activity against VRE among analogues: greatest activity

## C/C(=N\NC(=N)N)c1ccc(Cl)cc1.Cl [NCL191]
MRSA
  activity against MRSA among analogues: greatest activity
VRE
  activity against VRE among analogues: greatest activity

## Cl.N=C(N)NN=C(C(=O)O)c1ccccc1 [NCL192]
MRSA
  activity against MRSA among analogues: greatest activity
VRE
  activity against VRE among analogues: greatest activity
